{"source": "ChEMBL document CHEMBL5247592", "about": "“Discovery of novel VEGFR-2-PROTAC degraders based on the localization of lysine residues via recruiting VHL for the treatment of gastric cancer” (Eur J Med Chem, 2022)", "key": {"[1]": {"molecular_target": "T1, von Hippel-Lindau disease tumor suppressor/Vascular endothelial growth factor receptor 2 (Homo sapiens, UniProt P35968+P40337)", "T1 sequence (P35968 20-1356 limits assumed)": "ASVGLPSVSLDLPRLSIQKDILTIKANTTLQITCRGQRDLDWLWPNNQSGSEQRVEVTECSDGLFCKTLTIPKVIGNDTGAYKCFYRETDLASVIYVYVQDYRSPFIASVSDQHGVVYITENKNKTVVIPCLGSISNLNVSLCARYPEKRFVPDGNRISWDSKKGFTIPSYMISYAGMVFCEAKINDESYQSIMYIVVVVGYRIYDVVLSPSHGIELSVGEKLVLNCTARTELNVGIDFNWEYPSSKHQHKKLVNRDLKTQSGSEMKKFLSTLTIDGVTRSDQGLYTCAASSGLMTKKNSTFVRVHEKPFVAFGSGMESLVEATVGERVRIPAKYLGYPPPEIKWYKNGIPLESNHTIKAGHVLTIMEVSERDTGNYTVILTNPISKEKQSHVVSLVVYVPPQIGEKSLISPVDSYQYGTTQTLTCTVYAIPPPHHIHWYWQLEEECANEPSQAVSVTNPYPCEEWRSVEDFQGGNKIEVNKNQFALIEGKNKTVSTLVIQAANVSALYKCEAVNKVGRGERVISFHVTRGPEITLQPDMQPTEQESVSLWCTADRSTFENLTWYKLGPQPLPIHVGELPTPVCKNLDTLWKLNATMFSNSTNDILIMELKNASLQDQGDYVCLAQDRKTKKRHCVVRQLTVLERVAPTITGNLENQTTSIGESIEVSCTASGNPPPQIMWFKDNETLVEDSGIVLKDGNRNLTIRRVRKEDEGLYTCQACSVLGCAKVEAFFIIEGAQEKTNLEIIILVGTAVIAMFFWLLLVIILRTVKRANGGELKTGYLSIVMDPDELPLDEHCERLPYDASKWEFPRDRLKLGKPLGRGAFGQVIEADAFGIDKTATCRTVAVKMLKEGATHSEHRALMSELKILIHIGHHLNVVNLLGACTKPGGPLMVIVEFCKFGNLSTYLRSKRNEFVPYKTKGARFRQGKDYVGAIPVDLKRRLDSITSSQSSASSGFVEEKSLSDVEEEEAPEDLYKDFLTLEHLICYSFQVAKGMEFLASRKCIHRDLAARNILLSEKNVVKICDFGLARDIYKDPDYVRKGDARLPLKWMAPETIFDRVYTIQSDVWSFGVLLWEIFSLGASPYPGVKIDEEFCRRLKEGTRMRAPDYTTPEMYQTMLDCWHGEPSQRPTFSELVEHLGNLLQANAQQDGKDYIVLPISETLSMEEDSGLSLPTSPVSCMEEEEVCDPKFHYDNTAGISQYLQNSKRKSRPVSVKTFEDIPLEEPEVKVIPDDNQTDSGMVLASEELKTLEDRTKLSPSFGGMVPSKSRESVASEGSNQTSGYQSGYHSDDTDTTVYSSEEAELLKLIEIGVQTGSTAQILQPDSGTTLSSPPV", "T1 sequence (P40337 whole entry partner)": "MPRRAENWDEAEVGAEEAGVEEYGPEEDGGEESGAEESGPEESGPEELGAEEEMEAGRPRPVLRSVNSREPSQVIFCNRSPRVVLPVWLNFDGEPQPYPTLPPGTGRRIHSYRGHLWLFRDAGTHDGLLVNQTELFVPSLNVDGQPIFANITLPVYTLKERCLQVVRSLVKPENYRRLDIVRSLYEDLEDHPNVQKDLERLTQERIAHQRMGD", "test": "PROTAC activity at VHL/VEGFR2 in human HGC-27 cells assessed as reduction in VEGFR2 protein level by measuring maximal efficacy at 0.15 uM incubated for 24 hrs by Western blot analysis relative to control", "type": "cell-based"}, "[2]": {"molecular_target": "Vascular endothelial growth factor receptor 2 (Homo sapiens, UniProt P35968)", "sequence (P35968 whole entry)": "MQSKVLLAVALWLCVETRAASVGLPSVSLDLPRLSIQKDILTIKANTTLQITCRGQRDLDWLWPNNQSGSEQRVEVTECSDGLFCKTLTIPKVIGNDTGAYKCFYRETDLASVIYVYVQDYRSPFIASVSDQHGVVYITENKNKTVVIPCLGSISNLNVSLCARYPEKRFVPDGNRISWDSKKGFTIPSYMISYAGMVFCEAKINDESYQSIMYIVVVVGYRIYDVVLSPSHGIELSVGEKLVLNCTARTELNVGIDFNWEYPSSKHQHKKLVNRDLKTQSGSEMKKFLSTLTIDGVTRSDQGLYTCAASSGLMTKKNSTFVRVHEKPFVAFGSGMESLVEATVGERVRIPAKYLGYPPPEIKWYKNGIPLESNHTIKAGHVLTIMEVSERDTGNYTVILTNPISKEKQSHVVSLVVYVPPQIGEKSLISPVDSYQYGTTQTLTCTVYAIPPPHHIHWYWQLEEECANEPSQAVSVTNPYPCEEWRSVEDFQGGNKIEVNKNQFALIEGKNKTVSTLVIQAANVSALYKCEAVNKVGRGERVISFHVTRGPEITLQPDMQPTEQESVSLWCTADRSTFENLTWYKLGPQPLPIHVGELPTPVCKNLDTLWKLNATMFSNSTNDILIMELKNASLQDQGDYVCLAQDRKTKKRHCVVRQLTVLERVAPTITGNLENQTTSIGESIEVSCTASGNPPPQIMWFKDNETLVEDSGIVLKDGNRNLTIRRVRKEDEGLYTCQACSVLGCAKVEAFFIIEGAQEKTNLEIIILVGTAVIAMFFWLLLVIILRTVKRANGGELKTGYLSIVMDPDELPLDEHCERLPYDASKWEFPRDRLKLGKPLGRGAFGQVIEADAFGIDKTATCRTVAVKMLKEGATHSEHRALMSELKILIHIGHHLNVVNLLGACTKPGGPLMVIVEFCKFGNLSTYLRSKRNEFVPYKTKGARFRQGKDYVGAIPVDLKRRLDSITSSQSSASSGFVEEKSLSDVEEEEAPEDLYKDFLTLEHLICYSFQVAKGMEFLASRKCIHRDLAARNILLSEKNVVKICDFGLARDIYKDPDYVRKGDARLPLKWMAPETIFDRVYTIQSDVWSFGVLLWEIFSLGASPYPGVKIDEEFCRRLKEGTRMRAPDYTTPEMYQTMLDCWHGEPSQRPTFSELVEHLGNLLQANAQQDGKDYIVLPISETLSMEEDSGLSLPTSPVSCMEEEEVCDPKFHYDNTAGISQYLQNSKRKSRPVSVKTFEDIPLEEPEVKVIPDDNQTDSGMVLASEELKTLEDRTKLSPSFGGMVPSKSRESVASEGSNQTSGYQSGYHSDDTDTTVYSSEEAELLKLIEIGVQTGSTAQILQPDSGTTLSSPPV", "test": "Inhibition of VEGFR2 (unknown origin) at 1 uM by caliper mobility shift assay relative to control"}, "[3]": {"molecular_target": "T1, von Hippel-Lindau disease tumor suppressor/Vascular endothelial growth factor receptor 2", "test": "PROTAC activity at VHL/VEGFR2 in human HGC-27 cells assessed as reduction in VEGFR2 protein level at 1 uM by Western blot analysis", "type": "cell-based", "details": "time 12-36 hrs, TDE = time-dependent effect"}, "[4]": {"molecular_target": "T1, von Hippel-Lindau disease tumor suppressor/Vascular endothelial growth factor receptor 2", "test": "PROTAC activity at VHL/VEGFR2 in human HGC-27 cells assessed as residual activity by measuring VEGFR2 expression level at 1 uM incubated for 24 hrs followed by compound washout and measured after 4 hrs by Western blot analysis relative to control", "type": "cell-based"}, "[5]": {"molecular_target": "T1, von Hippel-Lindau disease tumor suppressor/Vascular endothelial growth factor receptor 2", "test": "PROTAC activity at VHL/VEGFR2 in human HGC-27 cells assessed as induction of VEGRF2 protein degradation at 1 uM preincubated with 4-Amino-N-(6-(1-(2-((4-methyl-3-(trifluoromethyl)phenyl)amino)-2-oxoethyl)-1H-pyrazol-4-y1)-1H-indazol-3-Abenzamide for 2 hrs followed by compound addition and measured after 24 hrs by Western blot analysis", "type": "cell-based"}, "[6]": {"molecular_target": "T1, von Hippel-Lindau disease tumor suppressor/Vascular endothelial growth factor receptor 2", "test": "PROTAC activity at VHL/VEGFR2 in human HGC-27 cells assessed as reduction in relative VEGRF2 expression level at 1 uM preincubated with 4-Amino-N-(6-(1-(2-((4-methyl-3-(trifluoromethyl)phenyl)amino)-2-oxoethyl)-1H-pyrazol-4-y1)-1H-indazol-3-Abenzamide for 2 hrs followed by compound addition and measured after 24 hrs by Western blot analysis", "type": "cell-based"}, "[7]": {"molecular_target": "T1, von Hippel-Lindau disease tumor suppressor/Vascular endothelial growth factor receptor 2", "test": "PROTAC activity at VHL/VEGFR2 in human HGC-27 cells assessed as induction of VEGRF2 protein degradation at 1 uM preincubated with MG-132 for 2 hrs followed by compound addition and measured after 24 hrs by Western blot analysis", "type": "cell-based"}, "[8]": {"molecular_target": "T1, von Hippel-Lindau disease tumor suppressor/Vascular endothelial growth factor receptor 2", "test": "PROTAC activity at VHL/VEGFR2 in human HGC-27 cells assessed as reduction in VEGFR2 protein expression at 1 uM measured upto 24 hrs in the presence of cycloheximide by Western blot analysis", "type": "cell-based"}, "[9]": {"molecular_target": "T1, von Hippel-Lindau disease tumor suppressor/Vascular endothelial growth factor receptor 2", "test": "PROTAC activity at VHL/VEGFR2 in human HGC-27 cells assessed as half-life of intracellular VEGFR2 protein […] at 1 uM measured upto 24 hrs in the presence of cycloheximide by Western blot analysis (reference value: 5.45 hrs)", "type": "cell-based"}, "[10]": {"test": "Effect on VEGFR2 mRNA expression in human HGC-27 cells at 0.033 uM incubated for 24 hrs by qPCR analysis relative to control", "type": "functional"}, "[11]": {"test": "Effect on VEGFR2 mRNA expression in human HGC-27 cells at 1 uM incubated for 24 hrs by qPCR analysis relative to control", "type": "functional"}, "HGC-27 [12]": {"test_system": "HGC-27", "test": "Inhibition of cell migration in human HGC-27 cells assessed as suppression of cell migration at 1 uM incubated for 6 hrs by wound healing assay relative to control", "type": "functional"}, "HGC-27 [13]": {"test_system": "HGC-27", "test": "Antiinvasive activity in human HGC-27 cells assessed as reduction in number of invasive cells at 0.033 uM incubated for 24 hrs by transwell invasion assay (reference value: 118)", "type": "functional"}, "HGC-27 [14]": {"test_system": "HGC-27", "test": "Induction of apoptosis in human HGC-27 cells assessed as viable cells at 0.033 uM incubated for 24 hrs by Annexin V-FITC/PI staining based analysis (reference value: 95.3%)", "type": "functional", "details": "read-out: Activity"}, "HGC-27 [15]": {"test_system": "HGC-27", "test": "Induction of apoptosis in human HGC-27 cells assessed as viable cells at 0.1 uM incubated for 24 hrs by Annexin V-FITC/PI staining based analysis (reference value: 95.3%)", "type": "functional", "details": "read-out: Activity"}, "HGC-27 [16]": {"test_system": "HGC-27", "test": "Induction of apoptosis in human HGC-27 cells assessed as early apoptotic cells at 0.1 uM incubated for 24 hrs by Annexin V-FITC/PI staining based analysis (reference value: 1.7 %)", "type": "functional"}, "HGC-27 [17]": {"test_system": "HGC-27", "test": "Induction of apoptosis in human HGC-27 cells assessed as late apoptotic cells at 0.1 uM incubated for 24 hrs by Annexin V-FITC/PI staining based analysis (reference value: 3%)", "type": "functional"}, "HGC-27 [18]": {"test_system": "HGC-27", "test": "Induction of apoptosis in human HGC-27 cells assessed as necrotic cells at 0.1 uM incubated for 24 hrs by Annexin V-FITC/PI staining based analysis (reference value: 0.65 %)", "type": "functional"}, "HGC-27 [19]": {"test_system": "HGC-27", "test": "Induction of apoptosis in human HGC-27 cells assessed as viable cells at 0.33 uM incubated for 24 hrs by Annexin V-FITC/PI staining based analysis (reference value: 95.3%)", "type": "functional", "details": "read-out: Activity"}, "HGC-27 [20]": {"test_system": "HGC-27", "test": "Induction of apoptosis in human HGC-27 cells assessed as necrotic cells at 0.33 uM incubated for 24 hrs by Annexin V-FITC/PI staining based analysis (reference value: 0.65 %)", "type": "functional"}, "HGC-27 [21]": {"test_system": "HGC-27", "test": "Induction of apoptosis in human HGC-27 cells assessed as viable cells at 1 uM incubated for 24 hrs by Annexin V-FITC/PI staining based analysis (reference value: 95.3%)", "type": "functional", "details": "read-out: Activity"}, "HGC-27 [22]": {"test_system": "HGC-27", "test": "Induction of apoptosis in human HGC-27 cells assessed as late apoptotic cells at 1 uM incubated for 24 hrs by Annexin V-FITC/PI staining based analysis (reference value: 3%)", "type": "functional"}, "HGC-27 [23]": {"test_system": "HGC-27", "test": "Induction of apoptosis in human HGC-27 cells assessed as viable cells at 3.3 uM incubated for 24 hrs by Annexin V-FITC/PI staining based analysis (reference value: 95.3%)", "type": "functional", "details": "read-out: Activity"}, "HGC-27 [24]": {"test_system": "HGC-27", "test": "Induction of apoptosis in human HGC-27 cells assessed as late apoptotic cells at 3.3 uM incubated for 24 hrs by Annexin V-FITC/PI staining based analysis (reference value: 3%)", "type": "functional"}, "HGC-27 [25]": {"test_system": "HGC-27", "test": "Induction of cell cycle arrest in human HGC-27 cells assessed as G0/G1 phase cells at 0.033 uM incubated for 24 hrs by PI staining based flow cytometric analysis (reference value: 47.4%)", "type": "functional"}, "HGC-27 [26]": {"test_system": "HGC-27", "test": "Induction of cell cycle arrest in human HGC-27 cells assessed as G2/M phase cells at 0.033 uM incubated for 24 hrs by PI staining based flow cytometric analysis (reference value: 13.3%)", "type": "functional"}, "HGC-27 [27]": {"test_system": "HGC-27", "test": "Induction of cell cycle arrest in human HGC-27 cells assessed as S phase cells at 0.1 uM incubated for 24 hrs by PI staining based flow cytometric analysis (reference value: 26.4%)", "type": "functional"}, "HGC-27 [28]": {"test_system": "HGC-27", "test": "Induction of cell cycle arrest in human HGC-27 cells assessed as G2/M phase cells at 0.33 uM incubated for 24 hrs by PI staining based flow cytometric analysis (reference value: 13.3%)", "type": "functional"}, "HGC-27 [29]": {"test_system": "HGC-27", "test": "Induction of cell cycle arrest in human HGC-27 cells assessed as G0/G1 phase cells at 1 uM incubated for 24 hrs by PI staining based flow cytometric analysis (reference value: 47.4%)", "type": "functional"}, "HGC-27 [30]": {"test_system": "HGC-27", "test": "Induction of cell cycle arrest in human HGC-27 cells assessed as G0/G1 phase cells at 3.33 uM incubated for 24 hrs by PI staining based flow cytometric analysis (reference value: 47.4%)", "type": "functional"}, "HGC-27 [31]": {"test_system": "HGC-27", "test": "Induction of cell cycle arrest in human HGC-27 cells assessed as S phase cells at 3.33 uM incubated for 24 hrs by PI staining based flow cytometric analysis (reference value: 26.4%)", "type": "functional"}}, "note": "Activity calls are given as the source filed them. The calls are words filed in the database; no cut-off is given here.", "data": [{"compound": "Cc1ccc(NC(=O)Cn2cc(-c3ccc4c(NC(=O)c5ccc(NC(=O)CCCCCCCCC(=O)N[C@H](C(=O)N6C[C@H](O)C[C@H]6C(=O)NCc6ccc(-c7scnc7C)cc6)C(C)(C)C)cc5)n[nH]c4c3)cn2)cc1C(F)(F)F", "values": [{"measurement": "Emax", "setting": "[1]", "result": 73.7, "unit": "%"}, {"measurement": "inhibition", "setting": "[2]", "result": 97.5, "unit": "%"}, {"measurement": "Activity", "setting": "[3]", "result": "Tde"}, {"measurement": "Activity", "setting": "[4]", "result": 32.8, "unit": "%"}, {"measurement": "Activity", "setting": "[5]", "result": "inactive"}, {"measurement": "Activity", "setting": "[6]", "result": "inactive"}, {"measurement": "Activity", "setting": "[7]", "result": "inactive"}, {"measurement": "Activity", "setting": "[8]", "result": "Active"}, {"measurement": "T1/2", "setting": "[9]", "result": 5.45, "unit": "h"}, {"measurement": "Activity", "setting": "[10]", "result": 99.3, "unit": "%"}, {"measurement": "Activity", "setting": "[11]", "result": 91.3, "unit": "%"}, {"measurement": "inhibition at 1 µM", "setting": "HGC-27 [12]", "result": 11.7, "unit": "%"}, {"measurement": "Activity", "setting": "HGC-27 [13]", "result": 116}, {"measurement": "viability at 0.033 µM", "setting": "HGC-27 [14]", "result": 93, "unit": "%"}, {"measurement": "viability at 0.1 µM", "setting": "HGC-27 [15]", "result": 92.1, "unit": "%"}, {"measurement": "Activity", "setting": "HGC-27 [16]", "result": 3.5, "unit": "%"}, {"measurement": "Activity", "setting": "HGC-27 [17]", "result": 4.2, "unit": "%"}, {"measurement": "Activity", "setting": "HGC-27 [18]", "result": 0.46, "unit": "%"}, {"measurement": "viability at 0.33 µM", "setting": "HGC-27 [19]", "result": 89.1, "unit": "%"}, {"measurement": "Activity", "setting": "HGC-27 [20]", "result": 0.96, "unit": "%"}, {"measurement": "viability at 1 µM", "setting": "HGC-27 [21]", "result": 76.5, "unit": "%"}, {"measurement": "Activity", "setting": "HGC-27 [22]", "result": 14.2, "unit": "%"}, {"measurement": "viability at 3.3 µM", "setting": "HGC-27 [23]", "result": 54, "unit": "%"}, {"measurement": "Activity", "setting": "HGC-27 [24]", "result": 30.5, "unit": "%"}, {"measurement": "Activity", "setting": "HGC-27 [25]", "result": 41.1, "unit": "%"}, {"measurement": "Activity", "setting": "HGC-27 [26]", "result": 15.7, "unit": "%"}, {"measurement": "Activity", "setting": "HGC-27 [27]", "result": 25.8, "unit": "%"}, {"measurement": "Activity", "setting": "HGC-27 [28]", "result": 37.7, "unit": "%"}, {"measurement": "Activity", "setting": "HGC-27 [29]", "result": 12.5, "unit": "%"}, {"measurement": "Activity", "setting": "HGC-27 [30]", "result": 14.1, "unit": "%"}, {"measurement": "Activity", "setting": "HGC-27 [31]", "result": 21.2, "unit": "%"}]}]}
